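In this assay, cells in 96-well plates receive the compound at five concentrations for 48 hours. Endpoints are linearly interpolated between the surrounding concentrations. Here, GI50 denotes the concentration required for 50% inhibition of growth. TGI: total growth inhibition.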
Columns and labels:
Experiment in all cases: NCI anticancer screen, dose series, 48 h
UACC-62 melanoma = test system: UACC-62 melanoma
NCI/ADR-RES ovarian = test system: NCI/ADR-RES ovarian
CAKI-1 renal = test system: CAKI-1 renal
SK-MEL-2 melanoma = test system: SK-MEL-2 melanoma
PC-3 prostate = test system: PC-3 prostate
HCT-116 colon = test system: HCT-116 colon
OVCAR-4 ovarian = test system: OVCAR-4 ovarian
BT-549 breast = test system: BT-549 breast
TK-10 renal = test system: TK-10 renal
SR leukemia = test system: SR leukemia

SMILES	GI50 (UACC-62 melanoma) [µM]	TGI (UACC-62 melanoma) [µM]	GI50 (NCI/ADR-RES ovarian) [µM]	TGI (NCI/ADR-RES ovarian) [µM]	GI50 (CAKI-1 renal) [µM]	TGI (CAKI-1 renal) [µM]	GI50 (SK-MEL-2 melanoma) [µM]	TGI (SK-MEL-2 melanoma) [µM]	GI50 (PC-3 prostate) [µM]	TGI (PC-3 prostate) [µM]	GI50 (HCT-116 colon) [µM]	TGI (HCT-116 colon) [µM]	GI50 (OVCAR-4 ovarian) [µM]	TGI (OVCAR-4 ovarian) [µM]	GI50 (BT-549 breast) [µM]	TGI (BT-549 breast) [µM]	GI50 (TK-10 renal) [µM]	TGI (TK-10 renal) [µM]	GI50 (SR leukemia) [µM]	TGI (SR leukemia) [µM]
NC(=O)c1cc(-c2ccc(F)cc2)cc(-c2ccncc2)c1N	> 25	> 25	> 25	> 25	13.7	> 25	> 25	> 25	> 25	> 25	> 25	> 25	> 25	> 25	> 25	> 25	> 25	> 25	> 25	> 25
COc1cc(O)c(C(=O)/C=C/c2ccc(O)cc2)c(O)c1[C@@H]1C[C@H](CCc2ccc(O)cc2)O[C@H](c2ccc(O)cc2)C1	3.38	12.9	3.72	14.4	13.6	28.9	3.62	17.5	3.37	12.5	3.74	11.1	3.35	16.8	4.36	17.6	4.55	17.1	2.23	4.65
CC(C)CCN=C(N)c1ccc(N2CCN(c3ccc(C(N)=NCCC(C)C)cc3)CC2)cc1	16.8	33.8	61.4	> 100	31.4	> 100	9.37	> 100	11.4	43.4	9.52	33.5	3.4	33.1	0.474	3.1	9.08	89.9	2.73	7.44
CC(=Nc1ccccc1)C1=C(O)C(Cc2ccccc2)NC1=O (stereo not given)	0.0404	> 100	0.03	0.117	0.0299	> 76.4	0.0447	> 31.5	0.036	> 100	0.0363	0.51	0.115	> 100	0.0578	0.501	0.042	> 100	0.0231	> 30.9
CC1OC(OC2C(O[C@H]3CC[C@@]4(C)C(=CC[C@H]5[C@@H]6C[C@@H]7O[C@]8(CC[C@H](C)CN8)[C@@H](C)[C@@H]7[C@@]6(C)CC[C@@H]54)C3)OC(CO)C(O)C2OC2OC(CO)C(O)C(O)C2O)C(O)C(O)C1O (stereo not given in full)		32.1		32.5		34		32.4		33.5		39.9		37		30.9		31.1		61.6
Cn1ccnc1C(=O)/C=C/c1ccccc1	7.46	21.3	3.11	8.95	3.88	19	3.63	17.1	12.5	37.4	2.72	12.2	7.47	26	3.63	8.48	5.83	19.1	1.38	6.05
CC1(C)[C@@H](O[C@@H]2OC[C@@H](O[C@@H]3O[C@H](CO)[C@@H](O)[C@H](O)[C@H]3O[C@@H]3OC[C@@H](O)[C@H](O)[C@H]3O)[C@H](O)[C@H]2O[C@@H]2O[C@H](CO)[C@@H](O)[C@H](O)[C@H]2O)CC[C@]2(C)[C@H]3CC[C@]45OC[C@@]6(CC[C@](C)(C=O)C[C@H]64)[C@H](O)C[C@@]5(C)[C@]3(C)CC[C@@H]12	0.909	1.81	1.24	3.43	0.763	1.45	0.886	1.74	0.884	1.78	0.898	1.91	0.794	1.66	1.14	3.37	0.945	1.83	0.185	1.92
Fc1ccc(Nc2nc3nonc3nc2Nc2ccc(F)cc2)cc1	0.283	3.22	0.329	2.76	0.35	10.8	0.285	0.807	0.28	11.2	0.322	11.4	0.294	10.9	0.309	2.77	0.435	6.74	0.447	2.75
COc1ccc(-c2nc3ccccn3c2/C=C/C(=O)c2cc(OC)c(OC)c(OC)c2)cc1	5.58	> 100	3.36	29.4	8.33	> 100	4.95	> 100	19.8	> 100	2.26	11.1	5.72	> 100	3.27	> 100	4.16	> 100	3.71	> 100
